From PubChem BioAssay AID720611 (Broad Institute, 2013)

System: SNB-19 viability, CellTiter-Glo ATP luminescence, 8-48 h
Assay: SNB-19 glioblastoma cell viability over time, late-stage follow-up, mechanism study for HRAS target identification, CellTiter-Glo ATP luminescence, 8-48 h, dry powder (AID 720611)

SMILES | AC50 (measured here: 8 h treatment) | AC50 (measured here: 24 h treatment) | AC50 (measured here: 48 h treatment)
COc1ccc(N(C(=O)CCl)C(C(=O)NCCc2ccccc2)c2cccs2)cc1Cl (centres undefined) | 978 nM | 1300 nM | 1250 nM
CC(C)(C)OC(=O)NCCOCCOCCOc1ccc(N(C(=O)CCl)C(C(=O)NCCc2ccccc2)c2cccs2)cc1Cl (centres undefined) | 1410 nM | 2500 nM | 1450 nM
C#CCCCC(=O)NCCOCCOCCOc1ccc(N(C(=O)CCl)C(C(=O)NCCc2ccccc2)c2cccs2)cc1Cl (centres undefined) | 5750 nM | 4270 nM | 3600 nM
